In the assay the test system is primary neuronal cultures from embryonic rat brains. As to the kind of experiment: Rat oscillation assay (FLIPR, neuronal calcium oscillations). The class given is cell-based. Conditions: for IC50: Rattus norvegicus. The protocol:
A) Rat Oscillation Assay:
This assay is a functional phenotypic assay designed to mimic epileptic seizures using primary neuronal cultures from embryonic rat brains, which form a functional neuronal network that generate synchronized intracellular calcium concentration oscillations when cultured at high density in 384-well plate. The epileptic phenotype is induced by incubating the neurons in magnesium-free assay buffer, that results in increased probability of NMDA receptor activation, leading to an increased frequency and amplitude of intracellular calcium oscillations. Once neurons are incubated with the calcium indicator dye Fluo-8 AM (Tebu-bio), neuronal calcium oscillations can be monitored in real time using FLIPR® Tetra (fluorometric plate reader, Molecular Devices). With these recordings, the effect of anti-epileptic drugs can be quantified. The anti-epileptic effect of compounds, which activate directly or indirectly the Kv7 channels can be modulated by the Kv7 channel blocker XE-991. The assay was performed as described previously (Pacico N, Mingorance-Le Meur A. New In Vitro Phenotypic Assay for Epilepsy: Fluorescent Measurement of Synchronized Neuronal Calcium Oscillations. PLoS ONE 9(1) 2014) with modifications described hereafter.
Animal care followed standard procedures in accordance with swiss institutional guidelines. Dissociated neuronal cultures were obtained from cerebral cortices of embryonic Wistar rats at embryonic stage E18 (Charles River). The uterine horns were removed by caesarian surgery from deeply anesthetized rats (Isofurane) and sacrificed by decapitation. The embryos were decapitated by closing forceps. The brains were isolated and dissected one by one in ice-cold PBS (Life Technologies) under optical control using a binocular. Meninges, olfactory bulbs, and basal ganglia were removed. Cortical hemispheres (still including the hippocampus) were cut in small pieces with tweezers and placed on ice in pre-chilled Hibernate-E medium (Life technology). The hemispheres were then incubated in 10 mL of Hibernate-E containing 15 U/mL papain (Worthington) for 25 min at 30° C. with gentle mixing every 10 min. Genomic DNA was then digested by prolonging the incubation during 10 min at 37° C. in presence of 4 U/mL rDNase I (Ambion). The obtained suspension was then centrifuged at 800 g for 5 min and the cell pellet was resuspended in 2 mL Hibernate-E and gently dissociated by pipetting up and down 10 times with a plastic Pasteur pipette resulting in a homogenous cell suspension. This suspension was immediately filtered through a 70 µm cell strainer (MACS® SmartStrainer, Miltenyi), collected in 10 mL Hibernate-E and centrifuged at 800 g for 5 min. The cell pellet was resuspended in Neurobasal medium, supplemented with 2% B-27, 0.5 mM Glutamax-I, 100 U/mL penicillin, 100 µg/mL streptomycin (Life Technologies) and diluted at the final concentration of 300′000 cells/mL. One day before plating the cells, 384-well plates were coated with 25 μL/well of 0.1% poly-L-lysine solution (Sigma), incubated overnight at 37° C., washed two times with sterile distilled water and allowed to dry at room temperature for >2 h. The neurons were seeded at a density of 15′000 cells/well in 50 μL/well in a 384-well black, clear-bottomed plates (Corning) and subsequently maintained in an incubator at 37° C., 5% CO2 and 95% humidity for 8 to 10 days. After 3 and 7 days, 40% of media was renewed under sterile conditions.
Protocol Rat Oscillation Assay
Neurons seeded in the assay plates were washed with Hank's balanced salt solution (HBSS) devoid of Ca^2+ and Mg^2+, supplemented with 20 mM HEPES (Life Technologies) and 2 mM CaCl2 (Sigma), pH 7.4 (hereafter called Assay buffer) using a Biotek EL406 plate washer. Neurons were loaded with 1 μM Fluo-8 AM in Assay buffer for 15 min at 37° C., 5% CO2. […]

Setting [1] is: 20 min, AUC of fluorescence measured 20 min after compound addition, read-out: FLIPR: IC50 [nM] 20 min.
Where [2] appears, read: Acute phase, ratio of AUC fluorescence before and after compound addition, read-out: FLIPR: IC50 [nM] acute.

Structures are written as SMILES. Read-outs that look alike come from different tables or passages of the source.

The IC50 is the midpoint of a concentration-inhibition curve. `COCC(NC(=O)NC1CC2(CCC2)C1)c1ccnc(OC(F)F)c1` (racemic) [Example 10, (±)-1-[1-(2-Difluoromethoxy-pyridin-4-yl)-2-methoxy-ethyl]-3-spiro[3.3]hept-2-yl-urea]: the IC50 stood at 6 nM under setting [1] and 6.2 nM under setting [2].
For the compound `COCC(NC(=O)NC1CC2(CC2)C1)c1cccc(C(F)(F)F)c1` (racemic) [Example 147, (±)-1-[2-Methoxy-1-(3-trifluoromethyl-phenyl)-ethyl]-3-spiro[2.3]hex-5-yl-urea], the IC50 by setting is: under setting [1], 23 nM; under setting [2], 18 nM.
On to `O=C(NC1CC2(CCC2)C1)NC(c1cccc(C(F)(F)F)c1)C(F)F` (centres unmarked) [Example 57, 1-[2,2-Difluoro-1-(3-trifluoromethyl-phenyl)-ethyl]-3-spiro[3.3]hept-2-yl-urea], for which the 50% inhibitory concentration (IC50) under setting [1] stood at 2.3 nM and the 50% inhibitory concentration (IC50) under setting [2] was 2.9 nM.
For `O=C(NC1CC2(CCC2)C1)N1CCc2c(ccnc2OCC(F)(F)F)C1` [Example 53, 5-(2,2,2-Trifluoro-ethoxy)-3,4-dihydro-1H-[2,6]naphthyridine-2-carboxylic acid spiro[3.3]hept-2-ylamide] the same measures were 226 nM and 185 nM.
For `O=C(NCc1cccc(C(F)(F)F)c1)NC1CC2(C1)CC2(F)F` (centres unmarked) [Example 3, 1-(1,1-Difluoro-spiro[2.3]hex-5-yl)-3-(3-trifluoromethyl-benzyl)-urea] the same measures were 186 nM and 122 nM.
As to `O=C(NC1CC2(CCC2)C1)NC(CO)c1cccc(OCC(F)(F)F)c1` (racemic) [Example 87, (±)-1-{2-Hydroxy-1-[3-(2,2,2-trifluoro-ethoxy)-phenyl]-ethyl}-3-spiro[3.3]hept-2-yl-urea], the IC50 under setting [1] turned out to be 12 nM and the IC50 under setting [2] stood at 21 nM.
For `CC(NC(=O)NC1CC2(CC2)C1)c1cc(F)cc(OCC(F)(F)F)c1` (racemic) [Example 132, (±)-1-{1-[3-Fluoro-5-(2,2,2-trifluoro-ethoxy)-phenyl]-ethyl}-3-spiro[2.3]hex-5-yl-urea], the IC50 under setting [1] turned out to be 110 nM and the IC50 under setting [2] is 79 nM.
As to `CC(NC(=O)NC1CC2(CCC2)C1)c1cccc(S(C)(=O)=O)c1` (racemic) [Example 36, (±)-1-[1-(3-Methanesulfonyl-phenyl)-ethyl]-3-spiro[3.3]hept-2-yl-urea], the half-inhibitory concentration (IC50) by setting is: under setting [1], 330 nM; under setting [2], 236 nM.
As for `COC[C@H](NC(=O)NC1CC2(CCC2)C1)c1ccnc(OC(F)F)c1` (single isomer, unassigned) [Example 187], the half-inhibitory concentration (IC50) was determined as 3.9 nM under setting [1] and 2.7 nM under setting [2].
Regarding `COc1ccc(OCC(F)(F)F)cc1C(C)NC(=O)NC1CC2(CCC2)C1` (racemic) [Example 40, (±)-1-{1-[2-Methoxy-5-(2,2,2-trifluoro-ethoxy)-phenyl]-ethyl}-3-spiro[3.3]hept-2-yl-urea], the IC50 runs as follows: under setting [1], 382 nM; under setting [2], 351 nM.
Regarding `CC(NC(=O)NC1CC2(CC2)C1)c1cc(OCC(F)(F)F)ncn1` (racemic) [Example 144, (±)-1-Spiro[2.3]hex-5-yl-3-{1-[6-(2,2,2-trifluoro-ethoxy)-pyrimidin-4-yl]-ethyl}-urea], the IC50 under setting [1] is 119 nM and the IC50 under setting [2] was 96 nM.
As for `CC(NC(=O)NC1CC2(CCC2)C1)c1ccnc(OC(F)(F)F)c1` (racemic) [Example 97, (±)-1-Spiro[3.3]hept-2-yl-3-[1-(2-trifluoromethoxy-pyridin-4-yl)-ethyl]-urea], the IC50 reads like this: under setting [1], 170 nM; under setting [2], 53 nM.
Regarding `O=C(NCc1cccc(OCC(F)(F)F)c1)NC1CC2(CCC2)C1` [Example 14, 1-Spiro[3.3]hept-2-yl-3-[3-(2,2,2-trifluoro-ethoxy)-benzyl]-urea], the IC50 is 27 nM under setting [1] and 31 nM under setting [2].
As to `O=C(NCc1nccc(OCC(F)(F)F)n1)NC1CC2(CC2)C1` [Example 126, 1-Spiro[2.3]hex-5-yl-3-[4-(2,2,2-trifluoro-ethoxy)-pyrimidin-2-ylmethyl]-urea], the half-maximal inhibitory concentration (IC50) reads like this: under setting [1], 7620 nM; under setting [2], 4960 nM.
For `Cc1nc(OCC(F)(F)F)cc(C(C)NC(=O)NC2CC3(CC3)C2)n1` (racemic) [Example 145, (±)-1-{1-[2-Methyl-6-(2,2,2-trifluoro-ethoxy)-pyrimidin-4-yl]-ethyl}-3-spiro[2.3]hex-5-yl-urea], the 50% inhibitory concentration (IC50) under setting [1] amounted to 80 nM and the IC50 under setting [2] is 57 nM.
On to `CC(NC(=O)NC1CC2(CCC2)C1)c1cc(F)cc(OCC(F)(F)F)c1` (racemic) [Example 95, (±)-1-{1-[3-Fluoro-5-(2,2,2-trifluoro-ethoxy)-phenyl]-ethyl}-3-spiro[3.3]hept-2-yl-urea], for which the IC50 reads like this: under setting [1], 48 nM; under setting [2], 52 nM.
Consider `CCOCCC(NC(=O)NC1CC2(CCC2)C1)c1cccc(C(F)(F)F)c1` (racemic) [Example 73, (±)-1-[3-Ethoxy-1-(3-trifluoromethyl-phenyl)-propyl]-3-spiro[3.3]hept-2-yl-urea], for which the half-inhibitory concentration (IC50) under setting [1] stood at 244 nM and the half-inhibitory concentration (IC50) under setting [2] is 305 nM.
For `O=C(NCc1ccc(F)c(C(F)(F)F)c1)NC1CC2(CCC2)C1` [Example 17, 1-(4-Fluoro-3-trifluoromethyl-benzyl)-3-spiro[3.3]hept-2-yl-urea], the IC50 under setting [1] is 145 nM and the half-inhibitory concentration (IC50) under setting [2] is 141 nM.
Consider `CC(C)OCC(NC(=O)NC1CC2(CCC2)C1)c1cccc(C(F)(F)F)c1` (racemic) [Example 72, (±)-1-[2-Isopropoxy-1-(3-trifluoromethyl-phenyl)-ethyl]-3-spiro[3.3]hept-2-yl-urea], for which the IC50 under setting [1] is 238 nM and the half-maximal inhibitory concentration (IC50) under setting [2] came to 266 nM.
As for `C[C@H](NC(=O)NC1CC2(CCC2)C1)c1cc(C(F)(F)F)ccc1Br` (single isomer, unassigned) [Example 190], the 50% inhibitory concentration (IC50) under setting [1] worked out at 200 nM and the IC50 under setting [2] came out at 286 nM. For the same compound, for the setting “assay not given”, the “activity compared with the (R) enantiomer” value is given as “more active than the (R) enantiomer”.
With `CC(Oc1cccc(C2(NC(=O)NC3CC4(CCC4)C3)CC2)c1)C(F)(F)F` (racemic) [Example 111, (±)-1-Spiro[3.3]hept-2-yl-3-{1-[3-(2,2,2-trifluoro-1-methyl-ethoxy)-phenyl]-cyclopropyl}-urea], the concentration for half-maximal inhibition (IC50) under setting [1] is 34 nM and the half-maximal inhibitory concentration (IC50) under setting [2] was 26 nM.
For the compound `COc1ccc(C(C)NC(=O)NC2CC3(CCC3)C2)cc1OCC(F)(F)F` (racemic) [Example 28, (±)-1-{1-[4-Methoxy-3-(2,2,2-trifluoro-ethoxy)-phenyl]-ethyl}-3-spiro[3.3]hept-2-yl-urea], the IC50 runs as follows: under setting [1], 600 nM; under setting [2], 629 nM.
For the compound `O=C(NC1CC2(CCC2)C1)N[C@H](CO)c1cccc(C(F)(F)F)c1` (single isomer, unassigned) [Example 185], the 50% inhibitory concentration (IC50) was 753 nM under setting [1] and 936 nM under setting [2].
In the case of `CC(NC(=O)NC1CC2(CC2)C1)c1cccc(C(F)(F)F)c1` (racemic) [Example 140, (±)-1-Spiro[2.3]hex-5-yl-3-[1-(3-trifluoromethyl-phenyl)-ethyl]-urea], the half-inhibitory concentration (IC50) stood at 59 nM under setting [1] and 27 nM under setting [2].
On to `COCC(NC(=O)NC1CC2(CCC2)C1)c1ccnc(OCC(F)(F)F)c1` (racemic) [Example 92, (±)-1-{2-Methoxy-1-[2-(2,2,2-trifluoro-ethoxy)-pyridin-4-yl]-ethyl}-3-spiro[3.3]hept-2-yl-urea], for which the IC50 by setting is: under setting [1], 0.8 nM; under setting [2], 1.3 nM.
As for `COc1ccc(C(F)(F)F)cc1C(C)NC(=O)NC1CC2(CC2)C1` (racemic) [Example 137, (±)-1-[1-(2-Methoxy-5-trifluoromethyl-phenyl)-ethyl]-3-spiro[2.3]hex-5-yl-urea], the IC50 is, setting by setting: under setting [1], 1020 nM; under setting [2], 1240 nM.

(Values after US20230136562A1, “SPIROUREA DERIVATIVES” (Idorsia Pharmaceuticals Ltd, priority 2020, published 2023).)
